Reference: US10300060B2, “Trk-inhibiting compound” (ONO PHARMACEUTICAL CO., LTD., priority 2013, dated 2019)

How the values were obtained:
b-Raf = b-Raf (Homo sapiens (Human), UniProt P15056); assay: Enzyme-inhibiting activity test of kinases other than Trk (selectivity experiment): b-Raf; type: biochemical; conditions: concentration of 3 μM; read-out: Inhibition rate (%) b-Raf
Protocol: (§1) A test substance (the present compound) was dissolved in dimethylsulfoxide to prepare a 100-fold concentration of the test concentration, 3 μM. The solution was further diluted to 25-fold with an assay buffer (20 mM HEPES, 0.01% Triton X-100, 2 mM DTT, pH 7.5) to obtain a test substance solution. In a similar manner a positive control substance solution was prepared with a positive control substance.
(§2) A 4-times concentration solution (5 μL) of the test substance prepared with the assay buffer, 5 μL of a 4-times concentration solution of substrate/ATP/metal (Mg) and 10 μL of a 2-times concentration solution of kinase were mixed in a well of a polypropylene 384-well plate and allowed to react at room temperature for 1 hour. The reaction was terminated by adding 60 μL of a Termination Buffer (QuickScout Screening Assist MSA; Carna Biosciences). The substrate peptide and the phosphorylated peptide in the reaction solution were separated and quantified. The kinase reaction was assessed from the product ratio (P/(P+S)) calculated from the height (S) of the peak of the substrate peptide and the height (P) of the peak of the phosphorylated peptide. Other kinases used in the kinase selectivity experiments were, for example, b-Raf and KDR. The following Table 3 indicates substrates, substrate concentrations, ATP concentrations and positive control substances used in respective kinase enzyme inhibition activity tests.

KDR = KDR (Homo sapiens (Human), UniProt P35968); assay: Enzyme-inhibiting activity test of kinases other than Trk (selectivity experiment): KDR; type: biochemical; conditions: concentration of 3 μM; read-out: Inhibition rate (%) KDR
Protocol: as §1, §2

Chain of KDR (P35968 20-1356, species assumed): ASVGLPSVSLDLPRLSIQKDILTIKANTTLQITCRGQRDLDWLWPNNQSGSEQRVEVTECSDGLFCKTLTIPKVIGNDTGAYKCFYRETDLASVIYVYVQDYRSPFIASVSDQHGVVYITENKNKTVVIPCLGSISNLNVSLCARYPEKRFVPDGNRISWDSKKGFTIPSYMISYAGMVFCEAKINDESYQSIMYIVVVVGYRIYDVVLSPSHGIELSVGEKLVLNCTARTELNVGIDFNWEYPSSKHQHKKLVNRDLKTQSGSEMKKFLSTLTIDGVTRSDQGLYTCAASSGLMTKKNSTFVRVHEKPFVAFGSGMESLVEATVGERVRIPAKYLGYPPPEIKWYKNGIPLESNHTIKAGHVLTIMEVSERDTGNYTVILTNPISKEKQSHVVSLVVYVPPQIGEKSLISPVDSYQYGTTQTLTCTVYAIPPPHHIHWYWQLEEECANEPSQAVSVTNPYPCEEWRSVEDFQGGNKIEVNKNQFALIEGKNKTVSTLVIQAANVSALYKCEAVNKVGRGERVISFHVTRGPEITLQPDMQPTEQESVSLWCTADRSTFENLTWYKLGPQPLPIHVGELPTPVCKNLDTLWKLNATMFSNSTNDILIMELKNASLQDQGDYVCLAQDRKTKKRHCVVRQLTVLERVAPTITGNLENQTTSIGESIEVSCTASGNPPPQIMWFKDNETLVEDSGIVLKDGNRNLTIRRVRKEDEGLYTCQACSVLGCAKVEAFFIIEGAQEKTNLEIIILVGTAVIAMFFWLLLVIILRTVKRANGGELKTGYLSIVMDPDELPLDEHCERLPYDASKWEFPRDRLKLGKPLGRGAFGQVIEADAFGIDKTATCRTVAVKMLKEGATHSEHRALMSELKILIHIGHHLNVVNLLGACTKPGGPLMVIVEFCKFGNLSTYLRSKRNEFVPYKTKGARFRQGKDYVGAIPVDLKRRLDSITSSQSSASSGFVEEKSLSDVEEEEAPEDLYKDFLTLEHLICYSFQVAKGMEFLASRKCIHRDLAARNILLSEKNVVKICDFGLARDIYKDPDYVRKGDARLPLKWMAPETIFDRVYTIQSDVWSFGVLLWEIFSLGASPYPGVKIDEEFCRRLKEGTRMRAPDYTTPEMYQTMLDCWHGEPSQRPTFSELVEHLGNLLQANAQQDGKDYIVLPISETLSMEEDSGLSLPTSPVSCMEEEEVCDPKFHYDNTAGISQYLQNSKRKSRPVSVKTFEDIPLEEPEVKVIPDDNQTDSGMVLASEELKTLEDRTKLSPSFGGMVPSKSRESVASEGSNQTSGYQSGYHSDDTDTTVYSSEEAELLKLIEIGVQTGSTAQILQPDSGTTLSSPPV
Chain of b-Raf (P15056 whole entry, species assumed): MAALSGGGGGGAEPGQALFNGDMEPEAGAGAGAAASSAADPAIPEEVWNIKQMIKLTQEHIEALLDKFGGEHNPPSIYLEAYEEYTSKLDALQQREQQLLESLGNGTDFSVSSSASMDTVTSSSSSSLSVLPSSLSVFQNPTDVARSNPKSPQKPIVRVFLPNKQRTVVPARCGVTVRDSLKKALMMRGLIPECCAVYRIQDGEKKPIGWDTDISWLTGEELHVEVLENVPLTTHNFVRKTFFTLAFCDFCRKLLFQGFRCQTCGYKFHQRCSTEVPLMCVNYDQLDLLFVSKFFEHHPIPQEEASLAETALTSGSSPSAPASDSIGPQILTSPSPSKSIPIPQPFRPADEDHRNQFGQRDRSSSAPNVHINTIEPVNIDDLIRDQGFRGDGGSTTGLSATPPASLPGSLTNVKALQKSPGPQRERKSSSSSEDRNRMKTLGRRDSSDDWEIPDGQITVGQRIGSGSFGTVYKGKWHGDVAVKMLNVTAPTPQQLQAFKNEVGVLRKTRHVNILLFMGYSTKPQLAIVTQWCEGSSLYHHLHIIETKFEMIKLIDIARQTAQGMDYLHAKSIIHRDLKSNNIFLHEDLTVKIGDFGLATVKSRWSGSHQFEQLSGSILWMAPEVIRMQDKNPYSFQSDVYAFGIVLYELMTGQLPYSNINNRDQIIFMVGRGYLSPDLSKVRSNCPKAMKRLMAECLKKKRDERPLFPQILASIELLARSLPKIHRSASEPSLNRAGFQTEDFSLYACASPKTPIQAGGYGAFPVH

Row | Structure (SMILES) | inhibition at 3 µM (b-Raf) | inhibition at 3 µM (KDR)
1 | CN(C)S(=O)(=O)c1ccc(C(F)(F)F)cc1NC(=O)Nc1cnc(Oc2ccc(-c3cc(C(F)(F)F)cnc3N)cc2)nc1 [Example 15-105, 2-{[(2-{4-[2-amino-5-(trifluoromethyl)-3-pyridinyl]phenoxyl}-5-pyrimidinyl)carbamoyl]amino}-N,N-dimethyl-4-(trifluoromethyl)benzenesulfonamide] | 26% | 0%
2 | Nc1ncc(Cl)cc1-c1ccc(Oc2ncc(NC(=O)Nc3cc(Cl)ccc3-n3ccc(C(F)(F)F)n3)cn2)cc1 [Example 15-71, 1-{2-[4-(2-amino-5-chloro-3-pyridinyl)phenoxy]-5-pyrimidinyl}-3-{5-chloro-2-[3-(trifluoromethyl)-1H-pyrazol-1-yl]phenyl}urea] | 40% | 0%
3 | Cn1nccc1-c1ccc(C(F)(F)F)cc1NC(=O)Nc1cnc(Oc2ccc(-c3cc(Cl)cnc3N)cc2)nc1 [Example 13-1, 1-(2-(4-(2-amino-5-chloropyridin-3-yl)phenoxy)pyrimidin-5-yl)-3-(2-(1-methyl-1H-pyrazol-5-yl)-5-(trifluoromethyl)phenyl)urea] | 33% | 7.5%
4 | CCOc1ccc2ncc(-c3ccc(Oc4ncc(NC(=O)Nc5cc(C(F)(F)F)ccc5-c5cccnc5)cn4)cc3)n2n1 [Example 22-34, 1-{2-[4-(6-ethoxyimidazo[1,2-b]pyridazin-3-yl)phenoxy]-5-pyrimidinyl}-3-[2-(3-pyridinyl)-5-(trifluoromethyl)phenyl]urea] | 56% | 19%
5 | O=C(Nc1cnc(Oc2ccc(-c3cnn4ccc(N5CCC5)nc34)cc2)nc1)Nc1cc(C(F)(F)F)ccc1-c1cccnc1 [Example 21-1, 1-(2-(4-(5-(azetidin-1-yl)pyrazolo[1,5-a]pyrimidin-3-yl)phenoxy)pyrimidin-5-yl)-3-(2-(pyridin-3-yl)-5-(trifluoromethyl)phenyl)urea] | 36% | 1.5%
6 | Cc1ccn2ncc(-c3ccc(Oc4ncc(NC(=O)Nc5cc(C(F)(F)F)ccc5-c5cccnc5)cn4)cc3)c2n1 [Example 21-65, 1-{2-[4-(5-methylpyrazolo[1,5-a]pyrimidin-3-yl)phenoxy]-5-pyrimidinyl}-3-[2-(3-pyridinyl)-5-(trifluoromethyl)phenyl]urea] | 58% | 19%
7 | CCNc1ccn2ncc(-c3ccc(Oc4ncc(NC(=O)Nc5cc(C(F)(F)F)ccc5-c5cccc(C)c5)cn4)cc3)c2n1 [Example 21-67, 1-(2-{4-[5-(ethylamino)pyrazolo[1,5-a]pyrimidin-3-yl]phenoxyl}-5-pyrimidinyl)-3-[3′-methyl-4-(trifluoromethyl)-2-biphenylyl]urea] | 19% | 0%
8 | Cn1nccc1-c1ccc(C(F)(F)F)cc1NC(=O)Nc1cnc(Oc2ccc(-c3cnn4ccc(N5CCC5)nc34)cc2)nc1 [Example 21-2, 1-(2-(4-(5-(azetidin-1-yl)pyrazolo[1,5-a]pyrimidin-3-yl)phenoxy)pyrimidin-5-yl)-3-(2-(1-methyl-1H-pyrazol-5-yl)-5-(trifluoromethyl)phenyl)urea] | 30% | 1%
9 | Cc1ccccc1-c1ccc(C(F)(F)F)cc1NC(=O)Nc1cnc(Oc2ccc(-c3cnn4ccc(N(C)C)nc34)cc2)nc1 [Example 21-75, 1-(2-{4-[5-(dimethylamino)pyrazolo[1,5-a]pyrimidin-3-yl]phenoxyl}-5-pyrimidinyl)-3-[2′-methyl-4-(trifluoromethyl)-2-biphenylyl]urea] | 41% | 0%
10 | Nc1ncc(Cl)cc1-c1ccc(Oc2ncc(NC(=O)Nc3ccc(C(F)(F)F)cc3-n3cccn3)cn2)cc1 [Example 15-4, 1-(2-(1H-pyrazol-1-yl)-4-(trifluoromethyl)phenyl)-3-(2-(4-(2-amino-5-chloropyridin-3-yl)phenoxy)pyrimidin-5-yl)urea] | 0% | 0%
